Data as given in patent US20240229043A1, “Methods and Compositions for Treating, Ameliorating, and/or Preventing Chronic Kidney Disease (CKD) and Complications thereof by Regulating DPEP1, CASP9, ACSS2 and/or FASN” (THE TRUSTEES OF THE UNIVERSITY OF PENNSYLVANIA, priority 2022, published 2024).
Peptide text beside a SMILES is read from it. * marks the point of attachment. Cbz = O=C(OCc1ccccc1)*; CH2F = FC*

What was measured:
[1] = system: Rat epithelial cells (NRK-52E); assay: Cisplatin-induced LDH release in siControl and siChmp1a transfected cells pretreated with cell death inhibitors; format: cell-based; conditions: siControl and siChmp1a cells pretreated with inhibitor 18 h, then 20 μM cisplatin 24 h
Protocol: Rat epithelial cells (NRK-52E; ATCC (CRL-1571)) were cultured in DMEM with 5% fetal bovine serum (FBS). Dpep1 and Chmp1a siRNA were purchased from Dharmacon. Dpep1-overexpressing vector pCMV6-Entry was purchased from OriGene Technologies, Inc. Transfection of gene-targeting siRNA, negative control siRNA, and overexpressing plasmid were performed using Lipofectamine 3000.
For transfection, cells were seeded in six-well plates, grown overnight until 60-70% confluency, and then transfected with 50 nM (final concentration) siRNA or 5 μg Dpep1-overexpression plasmids. Transfection efficiency was determined under a fluorescence microscope by the presence of Cy3 transfection control. […] After 24 h of Dpep1 siRNA transfection, cells were treated with cell death inducers for 18-20 h, respectively: 5 μM Nigericin (Sigma #N7143); 5 μM CPT (Cayman #11694); 5 μM erastin (Cayman #17754), 20 μM FIN56 (Cayman #25180), 5 μM FINO2 (Cayman #25096) and 5 μM RSL3 (Cayman #19288).
(§1) Mouse primary tubular epithelial cells from wild-type, mutant mice or NRK52E cells were plated in 96-well plate. Transfection of NRK52E cells with siRNA was carried out as described above. […] Cells were harvested and stained with trypan blue (Thermo Fisher #T10282) to visualize dead cells. Cell counts were analyzed in Countess Auto Counter (Invitrogen, C10227). LDH release was quantified using CytoTox 96 Non-Radioactive Cytotoxicity Assay (Promega #G1780). Medium was collected in triplicates, spun down, and incubated in a 96-well plate with the CytoTox reagent for 20-30 min. After adding the stop solution, the absorbance signal was measured at 490 nm in a plate reader. The ratio between dead cell and live cell was calculated through the measurement using MultiTox-Fluor Multiplex Cytotoxicity Assay (Promega #9201). Cells were incubated in assay buffer containing live cell substrate GF-AFC and dead cell substrate bis-AAF-R110 for 30 min at 37° C. The plate fluorescence was measured using a plate reader as following: viability: excitation ˜400 nm; emission ˜505 nm. cytotoxicity: excitation ˜485 nm; emission ˜520 nm.

[2] = target: FASN (Mus musculus, UniProt P19096); conditions: primary TECs; various concentrations for 48 h
[3] = target: T1, CASP9 (Mus musculus, UniProt Q8C3Q9); assay: Cisplatin model of kidney injury, mice treated with CASP9 inhibitor; format: in vivo
T1 construct: from tissue; host or cells: living mice; read-outs in serum and kidney
Protocol: Casp9 HZ mice were obtained. Mice were injected intraperitoneally with FA (#10752485 ACROS Organics, 250 mg/kg, dissolved in […] sodium bicarbonate) or sodium bicarbonate (#56014, Sigma-Aldrich) and euthanized on day 7. Mice were euthanized on day 7 after left ureteral ligation or sham surgery. […] Mice were euthanized 18 weeks after uninephrectomy and following low-dose STZ (50 mg/kg, i.p. for 5 days) (streptozotocin, Santa Cruz Biotechnology, #U-9889) or PBS injection. Aging mice were euthanized at 2 years of age. Transgenic mice (Nphs1-rtTA/TRE-APOL1-G2) were placed on a doxycycline diet to induce transgene expression and euthanized.
RNA was isolated from kidney tissue or cells using TRIzol (Invitrogen, #15596018). RNA was reverse-transcribed using the High-Capacity cDNA Reverse Transcription Kit (Applied Biosystems, #4368813), and qRT-PCR was run in the ViiA 7 System (Life Technologies) instrument using SYBR Green Master Mix (Applied Biosystems, #4367659) and gene-specific primers. For quantitative analysis, samples were normalized to glyceraldehyde-3-phosphate dehydrogenase (GAPDH) with the ΔΔCt method.
BUN was determined by a TRACE DMA Urea kit (Thermo Electron Corporation, #TR12003), according to the manufacturer's instructions. Electrolytes (Na, K, and Cl) and hemoglobin were measured with the iSTAT Portable Clinical Analyzer using i-STAT CHEM8+ cartridge (Abaxis, #10023291). Kidney tissue was stained with hematoxylin and eosin to investigate renal injury. The degree of tubulointerstitial damage was scored semiquantitatively on a 0 to 5+ scale, according to the percentage of the area affected by hydropic degeneration, hyaline casts, cytoplasmic vacuolization, loss of the brush border, and tubular lumen dilation (0=normal, 1=<10%, 2=10 to 25%, 3=26 to 50%, 4=51 to 75%, and 5=>75%). Sirius red staining was performed according to the manufacturer's protocol (Polysciences, #24901) to determine the degree of fibrosis. For each analysis, five to eight fields were randomly selected and quantified using the Fiji software. Each dot represents the mean score of a single animal.
Several small molecular inhibitors that target CASP9 have been developed with good specificity. […] Serum creatinine and BUN levels were lower, and renal expression of Havcr1 was dampened in Z-LEHD-FMK-treated mice.

[4] = system: primary TECs; assay: Cisplatin-treated primary kidney tubule cells from wild-type and Chmp1a+/- mice; format: cell-based
Protocol: For primary culture of renal tubule cells, kidneys were collected from 2- to 4-week-old male mice. Cells were isolated by 2 mg/ml collagenase I (Gibco #17018-029) digestion for 30 min at 37° C. with gentle stirring and filtered through a 100-μm mesh. The cell suspension was cultured in RPMI 1640 (Corning #10-040-CM) supplement with 10% FBS (Atlanta Biologicals #S11950), 20 ng/ml EGF (Peprotech #AF-100-15), 1×ITS (Gibco #51500-056), and 1% penicillin-streptomycin (Corning #30-002-CI) at 5% CO2 and 37° C.
Primary cultured renal tubule cells or NRK52E cells were incubated with 1 μM transferrin (Thermo Fisher #T13342) for 4 h, or 5 μM mitoSOX (ThermoFisher #M36008) for 10 min, or 2 μM BODIPY™ 581/591 C11 (Thermo Fisher #D3861) for 0.5 h, or 20 ng/ml dextran conjugated to 488 (Thermo Fisher #D22910) for 2 h, at 5% CO2 and 37° C., respectively. After washing with PBS, cells were imaged directly under the confocal or regular fluorescence microscope.
as §1

[5] = system: ferroptosis; assay: Cisplatin-induced injury in Chmp1a+/- mice injected with liproxstatin; format: in vivo; conditions: for protection from cisplatin-induced injury / kidney disease: Chmp1a+/- (heterozygous) mice
Protocol: Eight- to ten-week-old male mice were used in this study. All mice were maintained under SPF conditions with ambient temperature 20-22, humidity 50-70%, and a 12/12 h light/dark cycle. All animal experiments were reviewed and approved and were performed in accordance with the institutional guidelines. Dpep1 mutant mice were generated by co-injection of Cas9 mRNA (100 ng/μl; ThermoFisher, A29378), sgRNA (50 ng/μl) in CRISPR Cas9 Mouse Targeting Core of University of Pennsylvania. Two sgRNAs were generated with Guide-it™ sgRNA In Vitro Transcription Kit (Takara #632635). Chmp1a mutant mice were imported from Mutant Mouse Regional Resource Center of UC Davis (#031089-UCD). For FA-induced nephropathy mouse models, 8-week-old male wild-type and Dpep1^+/− or Chmp1a^+/− mice were injected with FA (250 or 200 mg/kg, dissolved in 300 mM sodium bicarbonate) intraperitoneally and euthanized on day 7. […] Mice were euthanized on day 3. For the UUO model, mice underwent ligation of the left ureter and were euthanized on day 7, and sham-operated mice were used as controls.
Serum creatinine was measured by Creatinine Enzymatic and Creatinine Standard (DIAZYME #DZ072B-KY1). Serum BUN was measured by Infinity™ Urea Liquid Stable Reagent (Pointe Scientific #B7552150). Both measurements were performed according to the manufacturers' instructions.
RNA was isolated from mouse kidneys or cultured cells using Trizol reagent (Invitrogen) and was reverse transcribed into cDNA using cDNA Archival Kit (Life Technologies). Real-time RT-PCR was performed using SYBR Green Master Mix (Applied Biosystems).

[6] = cisplatin-injected mice, inhibitor daily starting 1 day before cisplatin, vs vehicle

T1 sequence (Q8C3Q9 whole entry): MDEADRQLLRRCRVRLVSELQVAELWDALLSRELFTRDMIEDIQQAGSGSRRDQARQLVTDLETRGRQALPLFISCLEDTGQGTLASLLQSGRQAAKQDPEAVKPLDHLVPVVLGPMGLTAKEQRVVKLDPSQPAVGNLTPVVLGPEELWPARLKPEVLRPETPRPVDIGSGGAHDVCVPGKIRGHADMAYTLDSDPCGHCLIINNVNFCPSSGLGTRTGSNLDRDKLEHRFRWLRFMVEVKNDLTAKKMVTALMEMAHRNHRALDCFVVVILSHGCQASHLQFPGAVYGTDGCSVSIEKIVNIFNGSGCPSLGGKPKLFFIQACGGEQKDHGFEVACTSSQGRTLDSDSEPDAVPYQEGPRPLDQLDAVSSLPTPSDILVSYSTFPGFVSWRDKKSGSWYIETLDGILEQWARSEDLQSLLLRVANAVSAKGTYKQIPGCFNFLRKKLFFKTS
T1 sequence (O88879 whole entry partner): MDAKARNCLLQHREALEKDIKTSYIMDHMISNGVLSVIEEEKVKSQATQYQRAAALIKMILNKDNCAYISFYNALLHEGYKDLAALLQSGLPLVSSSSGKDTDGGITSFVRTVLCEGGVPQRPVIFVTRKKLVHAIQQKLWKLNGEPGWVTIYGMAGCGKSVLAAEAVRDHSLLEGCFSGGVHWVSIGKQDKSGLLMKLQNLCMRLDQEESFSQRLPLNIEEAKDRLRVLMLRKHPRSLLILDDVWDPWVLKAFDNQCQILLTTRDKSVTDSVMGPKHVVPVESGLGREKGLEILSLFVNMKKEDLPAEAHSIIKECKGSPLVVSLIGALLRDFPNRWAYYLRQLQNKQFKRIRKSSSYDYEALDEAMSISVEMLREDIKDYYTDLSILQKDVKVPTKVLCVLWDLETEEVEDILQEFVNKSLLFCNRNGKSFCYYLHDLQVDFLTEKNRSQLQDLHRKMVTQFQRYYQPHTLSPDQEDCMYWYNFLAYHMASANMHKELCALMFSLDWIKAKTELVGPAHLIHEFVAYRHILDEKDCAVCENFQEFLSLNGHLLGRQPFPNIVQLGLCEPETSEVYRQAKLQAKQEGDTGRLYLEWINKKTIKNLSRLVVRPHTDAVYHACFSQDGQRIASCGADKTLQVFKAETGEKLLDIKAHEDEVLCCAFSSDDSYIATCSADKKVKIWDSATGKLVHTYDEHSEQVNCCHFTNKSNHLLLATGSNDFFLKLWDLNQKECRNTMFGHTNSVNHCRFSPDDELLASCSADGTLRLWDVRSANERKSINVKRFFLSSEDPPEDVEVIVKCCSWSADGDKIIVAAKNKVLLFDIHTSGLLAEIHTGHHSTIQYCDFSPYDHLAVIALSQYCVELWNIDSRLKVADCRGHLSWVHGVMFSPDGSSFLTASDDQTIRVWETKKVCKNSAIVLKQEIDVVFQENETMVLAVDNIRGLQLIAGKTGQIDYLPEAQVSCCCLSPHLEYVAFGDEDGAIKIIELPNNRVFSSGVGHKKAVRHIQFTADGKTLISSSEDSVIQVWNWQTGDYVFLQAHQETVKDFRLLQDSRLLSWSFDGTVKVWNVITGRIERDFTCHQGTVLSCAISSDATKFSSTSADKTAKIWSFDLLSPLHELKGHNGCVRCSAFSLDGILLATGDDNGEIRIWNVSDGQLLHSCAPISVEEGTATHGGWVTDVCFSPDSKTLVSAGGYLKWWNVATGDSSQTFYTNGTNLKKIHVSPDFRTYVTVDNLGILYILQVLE
T1 sequence (P62897 2-105 partner limits assumed): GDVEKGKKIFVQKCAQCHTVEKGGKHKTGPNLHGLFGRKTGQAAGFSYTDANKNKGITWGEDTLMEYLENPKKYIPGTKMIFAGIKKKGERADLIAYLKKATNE
Chain of FASN (P19096 whole entry): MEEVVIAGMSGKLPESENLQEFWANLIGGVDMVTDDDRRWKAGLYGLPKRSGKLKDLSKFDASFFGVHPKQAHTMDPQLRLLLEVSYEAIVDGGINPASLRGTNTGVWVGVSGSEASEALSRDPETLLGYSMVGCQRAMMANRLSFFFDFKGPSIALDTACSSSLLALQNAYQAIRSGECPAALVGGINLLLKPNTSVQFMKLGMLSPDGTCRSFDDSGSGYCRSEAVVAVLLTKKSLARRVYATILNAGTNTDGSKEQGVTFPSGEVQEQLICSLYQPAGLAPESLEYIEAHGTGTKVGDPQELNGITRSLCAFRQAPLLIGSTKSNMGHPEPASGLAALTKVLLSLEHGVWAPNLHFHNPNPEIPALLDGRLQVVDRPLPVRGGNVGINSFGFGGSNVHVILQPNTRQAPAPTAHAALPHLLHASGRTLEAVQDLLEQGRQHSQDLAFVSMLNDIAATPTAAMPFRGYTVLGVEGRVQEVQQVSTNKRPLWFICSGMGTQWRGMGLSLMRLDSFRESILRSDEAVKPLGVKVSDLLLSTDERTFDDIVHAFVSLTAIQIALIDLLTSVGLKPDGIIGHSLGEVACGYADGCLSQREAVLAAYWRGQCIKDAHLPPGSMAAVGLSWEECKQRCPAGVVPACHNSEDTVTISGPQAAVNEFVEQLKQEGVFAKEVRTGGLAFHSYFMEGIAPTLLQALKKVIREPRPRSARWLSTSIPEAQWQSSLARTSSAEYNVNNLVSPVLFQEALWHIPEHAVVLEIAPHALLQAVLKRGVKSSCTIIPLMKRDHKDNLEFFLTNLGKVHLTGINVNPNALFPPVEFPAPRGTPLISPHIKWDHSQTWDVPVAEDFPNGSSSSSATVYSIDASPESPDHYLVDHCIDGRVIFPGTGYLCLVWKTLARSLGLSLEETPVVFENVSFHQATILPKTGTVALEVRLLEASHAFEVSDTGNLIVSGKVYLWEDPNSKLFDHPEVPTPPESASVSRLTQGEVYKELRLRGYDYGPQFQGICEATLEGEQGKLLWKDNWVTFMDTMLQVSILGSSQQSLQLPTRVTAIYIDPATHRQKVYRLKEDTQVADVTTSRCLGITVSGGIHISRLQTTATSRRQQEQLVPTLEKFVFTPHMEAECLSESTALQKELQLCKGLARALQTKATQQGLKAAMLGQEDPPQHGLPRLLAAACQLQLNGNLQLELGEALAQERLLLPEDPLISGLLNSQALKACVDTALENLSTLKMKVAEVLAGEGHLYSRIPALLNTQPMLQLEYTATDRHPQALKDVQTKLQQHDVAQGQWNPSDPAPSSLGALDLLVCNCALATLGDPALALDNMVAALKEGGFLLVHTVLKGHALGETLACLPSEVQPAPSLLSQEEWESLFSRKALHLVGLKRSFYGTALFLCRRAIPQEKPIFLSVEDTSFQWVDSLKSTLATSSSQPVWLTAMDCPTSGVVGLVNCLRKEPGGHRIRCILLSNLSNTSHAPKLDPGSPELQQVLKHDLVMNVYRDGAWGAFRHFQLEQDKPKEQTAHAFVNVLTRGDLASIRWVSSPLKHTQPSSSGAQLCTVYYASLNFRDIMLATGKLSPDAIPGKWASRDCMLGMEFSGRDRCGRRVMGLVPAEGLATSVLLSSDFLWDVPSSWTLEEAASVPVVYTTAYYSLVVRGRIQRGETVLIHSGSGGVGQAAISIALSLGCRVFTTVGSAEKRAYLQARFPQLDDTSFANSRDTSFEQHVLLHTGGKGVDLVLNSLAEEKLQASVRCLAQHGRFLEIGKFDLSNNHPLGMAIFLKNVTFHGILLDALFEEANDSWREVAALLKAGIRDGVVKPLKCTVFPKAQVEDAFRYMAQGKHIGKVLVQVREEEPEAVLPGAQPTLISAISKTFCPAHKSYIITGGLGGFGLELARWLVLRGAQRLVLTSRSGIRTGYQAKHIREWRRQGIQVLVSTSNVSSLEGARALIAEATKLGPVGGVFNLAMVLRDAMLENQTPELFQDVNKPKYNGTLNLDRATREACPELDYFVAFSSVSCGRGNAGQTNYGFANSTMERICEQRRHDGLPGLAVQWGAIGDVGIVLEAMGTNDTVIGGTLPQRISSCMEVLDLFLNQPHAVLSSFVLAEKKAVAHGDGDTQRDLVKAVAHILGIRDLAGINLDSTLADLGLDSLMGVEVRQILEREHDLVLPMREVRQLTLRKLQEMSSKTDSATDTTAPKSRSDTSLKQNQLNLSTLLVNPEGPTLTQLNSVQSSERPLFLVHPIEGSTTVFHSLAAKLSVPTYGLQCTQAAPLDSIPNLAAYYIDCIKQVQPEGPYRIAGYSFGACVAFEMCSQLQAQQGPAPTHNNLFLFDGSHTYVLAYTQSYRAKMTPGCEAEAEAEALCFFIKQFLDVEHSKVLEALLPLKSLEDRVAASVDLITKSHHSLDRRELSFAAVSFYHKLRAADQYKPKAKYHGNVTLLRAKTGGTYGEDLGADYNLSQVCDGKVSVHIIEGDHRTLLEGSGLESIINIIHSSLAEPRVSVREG

With `CN1C(=O)C(Cc2c[nH]c3ccccc23)NC1=S` (stereo not shown) [Nec-1, necrostatin-1] the LDH release [1] was “No change”.
With `COCc1[nH]c(C(F)(F)F)nc1-c1cc(C(=O)N2CC(c3ccc(C#N)cc3)C2)c(C)cc1C` [TVB-3664] the “cell death (cell viability)” value [2] was “did not increase cell death”.
In the case of `CCO[C@@H]1OC(=O)C[C@@H]1NC(=O)[C@@H]1CCCN1C(=O)[C@@H](NC(=O)c1ccc(N)c(Cl)c1)C(C)(C)C` [Vx765], the LDH release [1] is reported as “No change”.
In the case of `COC(=O)CC[C@H](NC(=O)[C@H](CC(C)C)NC(=O)OCc1ccccc1)C(=O)N[C@@H](Cc1cnc[nH]1)C(=O)N[C@@H](CC(=O)OC)C(=O)CF` [Z-LEHD-FMK] (Cbz-LE(OMe)HD(OMe)-CH2F), the “inflammatory cytokines (Il1b, Csf2, Tnfa, and Cxcl10) and Icam1 expression” value ([3]; after cisplatin injury, qRT-PCR, kidney) is reported as “lower”, the “kidney function and kidney damage” value ([3]; cisplatin-injected mice) is reported as “improved kidney function and lessened kidney damage” and the BUN level [3, 6] is reported as “lower”. The serum creatinine level [3, 6] was “lower” and the “renal expression of Havcr1” value ([3]; cisplatin-injected mice, vs vehicle) was “dampened”.
For `COC(=O)C[C@H](NC(=O)[C@H](C)NC(=O)[C@@H](NC(=O)OCc1ccccc1)C(C)C)C(=O)CF` [Z-VAD-FMK] (Cbz-Val-Ala-Asp(OMe)-CH2F), the LDH release [1] was “No change”.
In the case of `Clc1cccc(CN=C2Nc3ccccc3NC23CCNCC3)c1` [liproxstatin1], the cisplatin-induced cytotoxicity ([4]; Chmp1a+/- primary TECs, compared with inhibitors of necroptosis, apoptosis, pyroptosis) is reported as “alleviated”, the “lipid peroxidation (C11 BODIPY 581/591) induced by cisplatin” value ([4]; primary TECs from wild-type or Chmp1a+/- mice) is reported as “lower” and the LDH release [1] is reported as “reduced this effect”. The “protection from cisplatin-induced injury / kidney disease” value ([5]; listed as Liproxstatin1) was “protected”, the “protection from cisplatin-induced injury / kidney disease” value ([5]; listed as liproxstatin) was “marked protection” and the “Kidney injury marker Kim1” value ([5]; Chmp1a+/- mice, cisplatin) was “lower”. For the same compound, the serum creatinine level ([5]; Chmp1a+/- mice, cisplatin) was “reduced”.
